# Experimental data: BindingDB's records for doi:10.7270/Q2BR8QM3 (Nmmlsc, 2008)
# Where a name gives a salt, the structure may show the parent alone.
# Target: T1, Bcl-2-like protein 2 (Homo sapiens, UniProt Q92843)
# T1 sequence (Q92843 whole entry): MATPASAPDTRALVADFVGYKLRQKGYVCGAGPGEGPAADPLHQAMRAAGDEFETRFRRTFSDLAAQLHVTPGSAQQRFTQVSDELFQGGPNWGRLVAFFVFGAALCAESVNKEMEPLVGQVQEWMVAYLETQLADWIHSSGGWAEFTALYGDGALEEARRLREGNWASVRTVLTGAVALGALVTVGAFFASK
# Test: modulators of Bim-Bcl-W protein interaction, dose response, biochemical, multiplexed, bead-based flow cytometry, fluorescence (AID 1330)
# [1] = inactive by the depositor's call
SMILES,EC50 [1] [µM],EC50 [µM]
"COc1cc(CNc2ccc3[nH]c(=O)[nH]c3c2)cc(Br)c1OCC(=O)NC(C)(C)C [2-[2-bromo-6-methoxy-4-[[(2-oxo-1,3-dihydrobenzimidazol-5-yl)amino]methyl]phenoxy]-N-tert-butylacetamide]",1.47,–
"Cc1cc(OCc2cn3cccnc3n2)ccc1Cl [2-[(4-chloranyl-3-methyl-phenoxy)methyl]imidazo[1,2-a]pyrimidine]",19.8,–
"Cc1ccc(/C=C/C2=Cc3c(sc(NC(=O)CSc4nnc(N)[nH]4)c3C#N)C(C)(C)C2)o1 [2-[(5-azanyl-1H-1,2,4-triazol-3-yl)sulfanyl]-N-[3-cyano-7,7-dimethyl-5-[(E)-2-(5-methylfuran-2-yl)ethenyl]-6H-1-benzothiophen-2-yl]ethanamide]",6.38,–
"O=C(CSc1ccc2nnc(-c3ccccn3)n2n1)Nc1nccs1 [2-[[3-(2-pyridinyl)-[1,2,4]triazolo[4,3-b]pyridazin-6-yl]thio]-N-(2-thiazolyl)acetamide]",14.1,–
Cc1ccc(-c2cc(-c3ccc(C)o3)nc(N)c2C#N)cc1 [2-amino-6-(5-methylfuran-2-yl)-4-(4-methylphenyl)pyridine-3-carbonitrile],18.5,–
CCN(CC)c1ccc(NC2=C(Cl)C(=O)c3ccccc3C2=O)cc1 [2-chloro-3-{[4-(diethylamino)phenyl]amino}naphthoquinone],0.17,–
"O=C(/C=C/c1ccccc1Cl)c1ccccc(=O)c1O [3-[(E)-3-(2-chlorophenyl)prop-2-enoyl]-2-oxidanyl-cyclohepta-2,4,6-trien-1-one]",11.8,–
Cc1cc(N)ccc1N1CCCC1 [3-methyl-4-(1-pyrrolidinyl)aniline;hydrochloride],–,3.96
"COc1cc(C2Nc3cccc4cccc(c34)N2)cc(OC)c1O [4-(2,3-dihydro-1H-perimidin-2-yl)-2,6-dimethoxyphenol]",–,3.25
"Cc1nc2ncccn2c1-c1csc(Nc2ccccc2)n1 [4-(2-methyl-3-imidazo[1,2-a]pyrimidinyl)-N-phenyl-2-thiazolamine]",8.71,–
"CCN(CC)c1ccc(Nc2nc(N3CCOCC3)c3ccccc3n2)cc1 [4-N,4-N-diethyl-1-N-(4-morpholin-4-ylquinazolin-2-yl)benzene-1,4-diamine]",4.71,–
CCOc1cccc(CNc2ccc(O)cc2)c1OCc1ccc(Cl)cc1 [4-[[2-[(4-chlorophenyl)methoxy]-3-ethoxyphenyl]methylamino]phenol],10.2,–
"Cc1cc(C)nc(SCc2cc(=O)c(OC(=O)c3ccc(Cl)c([N+](=O)[O-])c3)co2)n1 [4-chloro-3-nitrobenzoic acid [6-[[(4,6-dimethyl-2-pyrimidinyl)thio]methyl]-4-oxo-3-pyranyl] ester]",6.18,–
"CCc1ccc(/C=C/C(=O)c2cc(Br)ccc(=O)c2O)cc1 [5-bromo-3-[(E)-3-(4-ethylphenyl)-1-oxoprop-2-enyl]-2-hydroxy-1-cyclohepta-2,4,6-trienone]",52.1,–
"COc1cc2nc(=S)[nH]c(NCC3CCCO3)c2cc1OC (stereo not given) [6,7-dimethoxy-4-(2-oxolanylmethylamino)-1H-quinazoline-2-thione]",4.62,–
"COc1ccc(C2=Nn3c(nnc3-c3ccco3)SC2)cc1OC [6-(3,4-Dimethoxy-phenyl)-3-furan-2-yl-7H-[1,2,4]triazolo[3,4-b][1,3,4]thiadiazine]",4.24,–
"CN(N=C/C=C/c1ccccc1)C1=NS(=O)(=O)c2ccccc21 [(1E,2E)-3-phenylacrylaldehyde (1,1-dioxido-1,2-benzisothiazol-3-yl)(methyl)hydrazone]",3.67,–
"COc1cc(/C=C2\CC/C(=C\c3cc(OC)c(O)c(OC)c3)C2=O)cc(OC)c1O [(2E,5E)-2,5-bis[(4-hydroxy-3,5-dimethoxyphenyl)methylidene]cyclopentan-1-one]",–,3.31
Cc1ccc(-c2ccc(/C=C3\SC(N4CCOCC4)=NC3=O)o2)cc1 [(5Z)-5-[[5-(4-methylphenyl)-2-furanyl]methylidene]-2-(4-morpholinyl)-4-thiazolone],89,–
O=C(/C=C/c1ccc(-c2ccccc2)o1)c1ccccc1 [(E)-1-phenyl-3-(5-phenyl-2-furanyl)-2-propen-1-one],13.9,–
